Test results taken from patent publication US9968557B1, “Method of preparing modified multilayered microstructures with enhanced oral bioavailability” (Florida A&M University, priority 2011, dated 2018).
In brackets after ≈: the same amount, converted by molar mass.

Experiments:
[1] = Solubility of DIM-P in buffers of different pH, assayed by HPLC; type: physicochemical
Description: (§1) Solubility measurements were assayed by HPLC. Five milligrams of DIM-C-pPhC6H5 (“DIM-P”) was suspended in 1 ml of different buffers having pH 2.0, 4.0, 5.0, 6.0, 7.0 and 8.0 in a centrifuge tubes. The tubes were placed at 37±0.1° C. and kept for shaking at 1500 rpm for 24 hours. The suspensions were centrifuged, and supernatant were filtered using 0.1 μm filters prior to HPLC analysis. Partition co-efficient of DIM-P was measured in an octanol-water system. Octanol and water were mixed in 1:1 concentration and 3 mg of DIM-P was added to 2 mL of mixture followed by vigorous shaking for 5 minutes. The mixture was separated by centrifugation and samples were collected and filtered through 0.1 μm filters prior to HPLC analysis.

[2] = Partition co-efficient in an octanol-water system; type: physicochemical; details: octanol-water 1:1
Description: as §1

- solubility ([1]; at any pH): less than 1 μg/mL
- solubility ([1]; pH 2.0, 37°C, 24 hours shaking): 0.18 ± 0.003 µg/mL (≈ 0.452 µM)
- Maximum solubility ([1]; pH 8.0, 37°C, 24 hours shaking): 0.73 ± 0.09 µg/mL
- sequence of solubility ([1]; rank order by pH): pH 8.0>6.0>4.0>2.0
- log p value [2]: 6.97±0.12
SMILES: c1ccc(-c2ccc(C(c3c[nH]c4ccccc34)c3c[nH]c4ccccc34)cc2)cc1 [DIM-P, DIM-C-pPhC6H5]
